# Source: PubChem BioAssay AID602211 (Sanford-Burnham Center for Chemical Genomics, 2012)
# Activity calls are given as the source filed them.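 Rule for the calls: active = mean IC50 at or below 10 µM; inactive = the rest.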
# Test system: H9c2 cardiomyocytes, H2O2 protection, ATPLite viability, 2 h
# Assay: H2O2-induced H9c2 cell death suppression – ATPLite luminescence, set 2, dose response (AID 602211);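 note: potency is for protection so actives keep ATP signal up against peroxide killing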
row,Compound,IC50
1,COC(=O)c1[nH]c2ccccc2c1NC(=O)CNC1CCCCC1,8.49 µM
2,CCOC(=O)c1cc2c(=O)n3cccc(C)c3nc2n(CCCOC)c1=NC(=O)c1cccnc1,2.87 µM
3,CC(=O)Nc1cccc(-c2cc(NC=O)c3ncc(-c4ccc(C(C)=O)cc4)n3c2)c1,6.5 µM
4,CCC(=O)N1CCN(c2ccccc2NC(=O)c2ccc(-c3cccc([N+](=O)[O-])c3)o2)CC1,1.99 µM
5,COc1ccc(CCNC(=O)C(=O)NCC2CCCN2S(=O)(=O)c2ccccc2)cc1OC (configuration not stated),6.18 µM
6,COc1ccc(-c2cc3nc(-c4ccccc4)cc(N4CCN(C(C)=O)CC4)n3n2)cc1,8.73 µM
7,Cc1ccc(CN(C(=O)CNC(=O)c2cccs2)C(C(=O)NCC2CCCO2)c2ccccc2)cc1 (configuration not stated),14.9 µM (inactive)
8,C[C@H]1Cn2cnc(C(=O)N[C@@H](Cc3c[nH]c4ccccc34)C(=O)OC(C)(C)C)c2C(=O)N1,24.1 µM (inactive)
9,CCC(C)N1C(=O)S/C(=C/c2ccc3c(c2)n(C)c(=O)n3C)C1=O (configuration not stated),> 79 µM (inactive)
10,CCOC(=O)N1CCC(n2c(SCC(=O)N3CCC(C)CC3)nc3ccccc3c2=O)CC1,> 79 µM (inactive)
11,COc1ccc(-c2csc(NC(=O)c3cccc(N4C(=O)CCC4=O)c3)n2)cc1OC,5 µM
12,O=C(NCC(=O)N(Cc1ccccc1)C(C(=O)NC1CCCCC1)c1ccco1)c1ccco1 (configuration not stated),38.7 µM (inactive)
13,O=C(NCc1ccco1)c1cc(-c2cccnc2)nc2ccc(Cl)cc12,4.95 µM
14,CC(C)(C)OC(=O)C[C@@H]1C/C=C\C[C@@H](CC(=O)N[C@H](CO)Cc2ccccc2)C(=O)NC[C@@H](c2ccccc2)OC1=O,17.6 µM (inactive)
15,CCOC(=O)c1nn(-c2cccc(OC)c2)c2nc(Nc3ccccc3)cc(=O)n12,> 79 µM (inactive)
16,CCCNC(=O)c1c(N)n(-c2cccc(OC)c2)c2nc3ccccc3nc12,> 79 µM (inactive)
17,C=CCOC(=O)C1=C[C@H](c2cn(C(C)=O)c3ccccc23)C[C@H](OCc2ccc(CO)cc2)O1,9.81 µM
18,Nc1nonc1-n1nnc(C(=O)N/N=C/c2ccccn2)c1CNc1ccccc1,16.3 µM (inactive)
19,COc1cc(NC(=O)c2cccc3c(-c4cnn(C)c4)coc23)cc(OC)c1OC,1.56 µM
20,O=c1cc(-c2cccnc2)oc2c1ccc1ccccc12,31.2 µM (inactive)
21,COc1ccccc1-c1cc(NC=O)c2ncc(-c3cccc(C(C)=O)c3)n2c1,8.53 µM
22,Cc1nc(N2CCN(c3ccccn3)CC2)c2c(C)c(C(=O)Nc3ccc(F)cc3)sc2n1,4.36 µM
23,COc1cc(-c2cc3nc(NCCc4ccc(S(N)(=O)=O)cc4)ccn3n2)cc(OC)c1OC,12.1 µM (inactive)

row,Compound,IC50
1,O=S(=O)(c1ccccc1)N1CCN(c2nc(-c3cccnc3)nc3ccccc23)CC1,4.54 µM
2,O=C(CN1CCN(Cc2ccccc2)CC1)Nc1ccc([N+](=O)[O-])cc1C(=O)Nc1ccccc1F,4.75 µM
3,COc1ccc2[nH]c(=O)c(CN(CC3CCCO3)S(=O)(=O)c3ccccc3F)cc2c1 (configuration not stated),4.52 µM
4,COC(=O)c1cc2ccc(OC)cc2c2cc(OC)c(OC)cc12,> 79 µM (inactive)
5,O=CNc1cc(-c2ccc(C(=O)NC3CC3)cc2)cn2c(-c3ccccc3)cnc12,10.3 µM (inactive)
6,COc1cccc(/C=N/Nc2nc3ccccc3n3cnnc23)c1,> 79 µM (inactive)
7,CCOc1ccc2[nH]c(=O)c(CN(Cc3nnnn3Cc3ccco3)C3CCCCC3)cc2c1,> 79 µM (inactive)
8,Cc1nn(-c2ccccc2)c(C)c1/C=N/NC(=O)c1cc(C(C)(C)C)[nH]n1,26.5 µM (inactive)
9,O=C(C[C@@H]1C/C=C/CC[C@@H](Cc2ccc(F)cc2)C(=O)O[C@@H](c2ccccc2)CNC1=O)NCCO,10.9 µM (inactive)
10,COC(=O)c1cc2c(C)c(C)c3ccccn3c-2c1C(=O)OC,> 79 µM (inactive)
11,O=C(CSc1nnc(Cc2cccs2)n1CCc1ccccc1)N1CCCc2ccccc21,> 79 µM (inactive)
12,Cc1[nH]c2ccccc2c1/C=N/NC(=O)c1cc(-c2cccs2)[nH]n1,3.62 µM
13,N#Cc1cnn2cc(-c3ncc(C(F)(F)F)cc3Cl)cnc12,29.9 µM (inactive)
14,COc1cccc2cc(-c3cc(=O)oc4ccc(OCC(C)=O)cc34)oc12,3.21 µM
15,Cc1ccccc1C1c2[nH]c3ccccc3c2C[C@H]2C(=O)N(c3ccccc3C(=O)NCCCN3CCOCC3)C(=O)N12 (some centres not stated),17.2 µM (inactive)
16,CC(=O)Nc1cc(-c2ccc(C(=O)NC3CC3)cc2)cn2c(-c3cccc(C(C)=O)c3)cnc12,9.83 µM
17,O=C(Cn1nc(C(=O)O)c2ccccc2c1=O)c1c[nH]c2ccccc12,3.53 µM
18,COc1cccc(C(=O)Nc2cc(C)c3c(=O)oc4ccccc4c3n2)c1,7.02 µM
19,COc1cc(/C=c2\s/c(=C(/C#N)C(=O)N3CCCC3)n(-c3ccccc3)c2=O)ccc1O,3.2 µM
20,O=C1N[C@H](Cc2ccccc2)COC(=O)[C@@H](Cc2ccc(F)cc2)C/C=C\C[C@H]1CC(=O)N(CCO)Cc1ccccc1,> 79 µM (inactive)
21,COc1ccc(-c2cc(-c3nnc(COC(=O)C4CC4C)o3)c3ccccc3n2)cc1OC (configuration not stated),3.86 µM
22,CCn1nc(C(=O)Nc2nc(-c3ccccn3)cs2)c2ccccc2c1=O,3.37 µM
23,O=C(CCCn1c(SCC(=O)c2ccc(O)c(O)c2)nc2ccccc2c1=O)NCC1CCCO1 (configuration not stated),21.7 µM (inactive)

row,Compound,IC50
1,COc1cccc(/C=N/NC(=O)c2ccncc2)c1OC(=O)c1ccc(Br)cc1,15.4 µM (inactive)
2,O=c1oc2ccc3ccccc3c2cc1-c1nnc(-c2ccccc2)o1,17.5 µM (inactive)
3,O=C(NCC(=O)N(Cc1cccs1)C(C(=O)NC1CCCC1)c1ccco1)c1cccs1 (configuration not stated),6.37 µM
4,COc1ccc(-c2nnc(-c3cc(OC)c(OC)c(OC)c3)o2)cc1OC,43.9 µM (inactive)
5,COc1ccccc1CN(C(=O)CNC(=O)c1ccco1)C(C(=O)NCC1CCCO1)c1ccccc1 (configuration not stated),9.67 µM
6,Nc1c(C(=O)N/N=C/c2cccnc2)oc2nc(-c3ccco3)cc(-c3ccco3)c12,2.45 µM
7,Cc1ccc(C)c(C(=O)Nc2cc(C)nn2-c2nc(C)cc(C)n2)c1,65.6 µM (inactive)
8,CC1CN(c2nn3c(=O)c4ccccc4nc3c3ccccc23)CC(C)O1 (configuration not stated),32.5 µM (inactive)
9,CN(C)C(=O)/C=C\c1cn(-c2ccccc2)nc1-c1ccc2c(c1)OCCO2,> 79 µM (inactive)
10,CC(=O)c1ccc(N2CCN(C(=O)C3CCCN(c4ncnc5c4nc4n5CCCCC4)C3)CC2)cc1 (configuration not stated),2.68 µM
11,CCOC(=O)c1cnc(Nc2nc3ccccc3o2)nc1CSc1nnc(C)s1,12.8 µM (inactive)
12,N#C/C(=C\c1cn(-c2ccccc2)nc1-c1cccnc1)c1nnc2n1CCCCC2,13.7 µM (inactive)
13,Cc1nc2ccccc2c2c(N)c3ccccc3n12,14.6 µM (inactive)
14,Cc1ncc(CO)c2c1Oc1nc(-c3ccccc3)nc(SCC(=O)N3CCCCC3)c1C2,> 79 µM (inactive)
15,COc1ccc(N(CC(=O)N/N=C/c2cccs2)S(=O)(=O)c2ccc(OC)c(OC)c2)cc1,10.3 µM (inactive)
16,NS(=O)(=O)c1ccc(CCNC(=O)c2ccc(C#CC3(O)CCCCC3)cc2)cc1,> 79 µM (inactive)
17,Cc1c(O)ccc2c(-c3ccccc3)cc(=O)oc12,> 79 µM (inactive)
18,O=C(Nc1nc(-c2ccccn2)cs1)c1ccc(-c2ccccc2F)o1,3 µM
19,COc1ccc(CCn2c(=O)c3cccnc3n(Cc3ccc([N+](=O)[O-])cc3)c2=O)cc1OC,1.22 µM
20,O=C/C(=C\Nc1ccccn1)c1nc2cc(Cl)ccc2o1,9.92 µM
21,O=C(c1cc(=O)[nH]c2ccccc12)N1CCN(S(=O)(=O)c2ccc(Cl)cc2)CC1,1.1 µM
22,O=C(COC(=O)c1c2c(nc3ccccc13)/C(=C/c1cccc([N+](=O)[O-])c1)CCC2)NC1CCS(=O)(=O)C1 (configuration not stated),4.47 µM
23,CCOc1ccc2ccccc2c1C(=O)N[C@@H]1C(=O)N2[C@@H]1SC(C)(C)[C@@H]2C(=O)O,24.4 µM (inactive)

row,Compound,IC50
1,COc1ccc(C(=O)Nc2cccc(/C(C)=N/NC(=O)c3ccc([N+](=O)[O-])c(C)c3)c2)cc1OC,4.93 µM
2,COc1ccc(-n2nc(C(=O)NCC(=O)Nc3cc(OC)c(OC)c(OC)c3)c3ccccc3c2=O)cc1Cl,3.02 µM
3,CCCN1C(=O)c2cc(C(=O)Nc3cccc(C(C)=O)c3)ccc2C1Nc1cccc(C(C)=O)c1 (configuration not stated),> 79 µM (inactive)
4,Cn1c2ccccc2c2cc(/C=N/NC(=O)c3cc(O)ccc3O)ccc21,> 79 µM (inactive)
5,COc1ccc(-c2csc(NC(=O)c3ccc(OCC(=O)N4CCOCC4)c(OC)c3)n2)cc1OC,2.44 µM
6,O=C(COc1cccc(NC(=O)c2cccc([N+](=O)[O-])c2)c1)c1ccc(F)cc1,9.26 µM
7,S=C(Nc1ccc(N2CCOCC2)cc1)Nc1ccc2nc(-c3ccco3)c(-c3ccco3)nc2c1,10.7 µM (inactive)
8,CCOc1ccc(-n2cc(-c3ccccc3)c3c(N4CCOCC4)ncnc32)cc1,6.61 µM
9,COc1cccc(OC)c1C(=O)Nc1cc(C)nn1-c1nc2ccccc2[nH]1,4.1 µM
10,COc1cc(-c2cc(NC(C)=O)c3ncc(-c4ccc(F)cc4)n3c2)cc(OC)c1OC,> 79 µM (inactive)
11,COc1ccc(-c2cc(C(=O)NNC(=O)c3csc(N4CCOCC4)n3)c3ccccc3n2)cc1,14.1 µM (inactive)
12,CCN(CC)S(=O)(=O)c1ccc(N2CCOCC2)c(NC(=O)c2cc(-c3ccccn3)nc3ccccc23)c1,1.34 µM
13,O=C1NC(Cc2ccc(O)cc2)c2nc3ccc(F)cc3c(=O)n2-c2cc3ccccc3cc21 (configuration not stated),3.72 µM
14,Fc1ccc(-n2cc(-c3ccccc3)c3c(N4CCOCC4)ncnc32)cc1,6.27 µM
15,COc1cc2nc(Nc3ccc(F)cc3)nc(N)c2cc1OC,4.24 µM
16,CC(C)(C)OC(=O)NCC12C=CC(O1)C1C(=O)N(Cc3ccccc3)C(=O)C12 (configuration not stated),2.91 µM
17,COc1ccccc1NC(=O)c1cc(-c2ccc(OC)c(OC)c2)nc2ccccc12,4.06 µM
18,Cc1nn(-c2ccccc2)c(N2CCCC2)c1/C=N/NC(=O)c1cc(-c2ccccn2)nc2ccccc12,7.63 µM
19,Cc1ccc(C(=O)Nc2cccc(C(F)(F)F)c2)cc1NC(=O)c1csc(-c2ccncc2)n1,5.51 µM
20,COc1cc(/C=C/c2nc(-c3ccccc3O)n[nH]2)cc(OC)c1OC,> 79 µM (inactive)
21,COc1ccc(Nc2nnc(SCc3cc(=O)n4ccsc4n3)s2)cc1,8.23 µM
22,O=C(NCCc1c[nH]c2ccccc12)C(=O)NCC(c1ccco1)N1CCN(c2ccccc2F)CC1 (configuration not stated),5.64 µM
23,COc1ccc(N(Cc2cc3cc(OC)ccc3[nH]c2=O)C(=O)c2cccnc2)cc1,19.1 µM (inactive)
